Where two headings read alike, the source gives them in different places. Blank lines part the entries; values can stand above or below the compound they belong to.
Columns and labels:
[1] = assay type: in vivo, human; conditions: part 1
CYP3A5 = conditions: human liver microsomes of CYP3A5*1/*1 (EM) donors; cited from earlier work
HIV‐1 [2] = test: Study 1; assay type: in vivo; conditions: for subjects who discontinued the study because of lack of efficacy: through week 96, maraviroc
HIV‐1 [3] = conditions: study 1; cited from earlier work
HIV = conditions: viral inhibition; cited from earlier work
HIV‐1 [4] = conditions: 48 weeks, cited from earlier work
[5] = week 48, efavirenz 600 mg once daily + zidovudine/lamivudine, EMs (2 CYP3A5*1 alleles)
[6] = week 48, efavirenz 600 mg once daily + zidovudine/lamivudine, IMs (1 CYP3A5*1 allele)
[7] = week 48, efavirenz 600 mg once daily + zidovudine/lamivudine, PMs (no CYP3A5*1 alleles)
[8] = week 48, efavirenz 600 mg once daily + zidovudine/lamivudine, overall
[9] = week 96, efavirenz 600 mg once daily + zidovudine/lamivudine, EMs (2 CYP3A5*1 alleles)
[10] = week 96, efavirenz 600 mg once daily + zidovudine/lamivudine, IMs (1 CYP3A5*1 allele)
[11] = week 96, efavirenz 600 mg once daily + zidovudine/lamivudine, PMs (no CYP3A5*1 alleles)
[12] = week 96, efavirenz 600 mg once daily + zidovudine/lamivudine, overall
[13] = week 48, maraviroc 300 mg twice daily + zidovudine/lamivudine, EMs (2 CYP3A5*1 alleles)
[14] = week 48, maraviroc 300 mg twice daily + zidovudine/lamivudine, IMs (1 CYP3A5*1 allele)
[15] = week 48, maraviroc 300 mg twice daily + zidovudine/lamivudine, PMs (no CYP3A5*1 alleles)
[16] = week 48, maraviroc 300 mg twice daily + zidovudine/lamivudine, overall
[17] = week 96, maraviroc 300 mg twice daily + zidovudine/lamivudine, EMs (2 CYP3A5*1 alleles)
[18] = week 96, maraviroc 300 mg twice daily + zidovudine/lamivudine, IMs (1 CYP3A5*1 allele)
[19] = week 96, maraviroc 300 mg twice daily + zidovudine/lamivudine, PMs (no CYP3A5*1 alleles)
[20] = week 96, maraviroc 300 mg twice daily + zidovudine/lamivudine, overall

Compound: Cc1nnc(C(C)C)n1C1C[C@H]2CC[C@@H](C1)N2CC[C@H](NC(=O)[C@H]1CCC(F)(F)[C@H](O)C1)c1ccccc1 (stereo partly drawn) [(1S,3R)-3-hydroxymaraviroc, (1S,3R)‐3‐hydroxymaraviroc]
mean MRAUC12 across all cohorts [1]: comparable | CYP3A5 contribution to the formation of this metabolite (CYP3A5): minimal

Compound: O=C1Nc2ccc(Cl)cc2[C@@](C#CC2CC2)(C(F)(F)F)O1 [Efavirenz]
Proportion of subjects with HIV-1 RNA <50 copies/mL (HIV‐1 [2]; [5]): 19/30 (63.3) % | Proportion of subjects with HIV-1 RNA <400 copies/mL (HIV‐1 [2]; [5]): 20/30 (66.7) % | Proportion of subjects with HIV-1 RNA <50 copies/mL (HIV‐1 [2]; [6]): 68/96 (70.8) % | Proportion of subjects with HIV-1 RNA <400 copies/mL (HIV‐1 [2]; [6]): 71/96 (74.0) % | Proportion of subjects with HIV-1 RNA <50 copies/mL (HIV‐1 [2]; [7]): 113/164 (68.9) % | Proportion of subjects with HIV-1 RNA <400 copies/mL (HIV‐1 [2]; [7]): 119/164 (72.6) % | Proportion of subjects with HIV-1 RNA <50 copies/mL (HIV‐1 [2]; [8]): 200/290 (69.0) % | Proportion of subjects with HIV-1 RNA <400 copies/mL (HIV‐1 [2]; [8]): 210/290 (72.4) % | Proportion of subjects with HIV-1 RNA <50 copies/mL (HIV‐1 [2]; [9]): 17/30 (56.7) % | Proportion of subjects with HIV-1 RNA <400 copies/mL (HIV‐1 [2]; [9]): 17/30 (56.7) % | Proportion of subjects with HIV-1 RNA <50 copies/mL (HIV‐1 [2]; [10]): 62/96 (64.6) % | Proportion of subjects with HIV-1 RNA <400 copies/mL (HIV‐1 [2]; [10]): 63/96 (65.6) % | Proportion of subjects with HIV-1 RNA <50 copies/mL (HIV‐1 [2]; [11]): 104/164 (63.4) % | Proportion of subjects with HIV-1 RNA <400 copies/mL (HIV‐1 [2]; [11]): 107/164 (65.2) % | Proportion of subjects with HIV-1 RNA <50 copies/mL (HIV‐1 [2]; [12]): 183/290 (63.1) % | Proportion of subjects with HIV-1 RNA <400 copies/mL (HIV‐1 [2]; [12]): 187/290 (64.5) %

Compound: CC(C)c1nnc(CO)n1C1C[C@H]2CC[C@@H](C1)N2CC[C@H](NC(=O)C1CCC(F)(F)CC1)c1ccccc1 (some centres unmarked) [hydroxymethylmaraviroc]
CYP3A5 contribution to the formation of this metabolite (CYP3A5): 1%

mean MRAUC12 among black IMs and PMs and white PMs [1]: comparable
Compound: (1R,2R)‐2‐hydroxymaraviroc [(1R,2R)-2-hydroxymaraviroc]
CYP3A5 contribution to the formation of this metabolite (CYP3A5): minimal

mean MRAUC12 across all cohorts [1]: comparable
Compound: (1S,3S)‐3‐hydroxymaraviroc [(1S,3S)-3-hydroxymaraviroc]
CYP3A5 contribution to the formation of this metabolite (CYP3A5): minimal

Compound: Maraviroc
Cavg associated with near-maximal virologic efficacy (HIV‐1 [3]): 75 ng/mL | subjects who discontinued the study because of lack of efficacy (HIV‐1 [2]; EMs (4/43)): 9.3% | subjects who discontinued the study because of lack of efficacy (HIV‐1 [2]; IMs (8/85)): 9.4% | subjects who discontinued the study because of lack of efficacy (HIV‐1 [2]; PMs (25/175)): 14.3% | Proportion of subjects with HIV-1 RNA <50 copies/mL (HIV‐1 [2]; [13]): 30/43 (69.8) % | Proportion of subjects with HIV-1 RNA <400 copies/mL (HIV‐1 [2]; [13]): 32/43 (74.4) % | Proportion of subjects with HIV-1 RNA <50 copies/mL (HIV‐1 [2]; [14]): 53/85 (62.4) % | Proportion of subjects with HIV-1 RNA <400 copies/mL (HIV‐1 [2]; [14]): 61/85 (71.8) % | Proportion of subjects with HIV-1 RNA <50 copies/mL (HIV‐1 [2]; [15]): 126/175 (72.0) % | Proportion of subjects with HIV-1 RNA <400 copies/mL (HIV‐1 [2]; [15]): 132/175 (75.4) % | Proportion of subjects with HIV-1 RNA <50 copies/mL (HIV‐1 [2]; [16]): 209/303 (69.0) % | Proportion of subjects with HIV-1 RNA <400 copies/mL (HIV‐1 [2]; [16]): 225/303 (74.3) % | Proportion of subjects with HIV-1 RNA <50 copies/mL (HIV‐1 [2]; [17]): 23/43 (53.5) % | Proportion of subjects with HIV-1 RNA <400 copies/mL (HIV‐1 [2]; [17]): 26/43 (60.5) % | Proportion of subjects with HIV-1 RNA <50 copies/mL (HIV‐1 [2]; [18]): 47/85 (55.3) % | Proportion of subjects with HIV-1 RNA <400 copies/mL (HIV‐1 [2]; [18]): 52/85 (61.2) % | Proportion of subjects with HIV-1 RNA <50 copies/mL (HIV‐1 [2]; [19]): 109/175 (62.3) % | Proportion of subjects with HIV-1 RNA <400 copies/mL (HIV‐1 [2]; [19]): 117/175 (66.9) % | Proportion of subjects with HIV-1 RNA <50 copies/mL (HIV‐1 [2]; [20]): 179/303 (59.1) % | Proportion of subjects with HIV-1 RNA <400 copies/mL (HIV‐1 [2]; [20]): 195/303 (64.4) % | proportions of subjects with HIV-1 RNA <50 and <400 copies/mL among all 3 CYP3A5 genotypes (HIV‐1 [2]; weeks 48 and 96): comparable | in vivo concentration for 50% inhibition (HIV): ~8 ng/mL | blacks with viral load <50 copies/mL (HIV‐1 [4]; once-daily maraviroc group): 28% | blacks with viral load <50 copies/mL (HIV‐1 [4]; twice-daily maraviroc group): 26%
